Literature values as cited in US6399099B1, “Effervescent composition with dry extract of ginkgo biloba” (Dr. Willmar Schwabe GmbH & Co., priority 1995, dated 2002).

Settings: neutral or slightly basic aqueous medium

CC(C)(C)[C@]1(O)CC2OC(=O)CC23C(=O)OC2OC(=O)[C@H](O)C231 (stereo partly shown) [bilobalide]
stability in aqueous medium: not stable
